Data published in patent US20240288345A1, “FLUORESCENT STAINING METHOD” (OSAKA UNIVERSITY, priority 2022, published 2024).

What was measured:
[1] = test system: neutrophil in colonic tissue analyte; experiment: Whole-mount 3D staining of ulcerative colitis colonic tissue analyte (Test Example C); set-up: species or system human; conditions: cleared
Protocol: (§1) A formaldehyde-fixed tissue specimen was washed with PBS, and was subsequently immersed in a 50% (v/v) CUBIC-L reagent (mixture containing water and the CUBIC-L reagent at 1:1) overnight. Further, the specimen was immersed in the CUBIC-L reagent at 37° C. for 5 days or 6 days while being gently shaken. Next, each of those specimens was washed with PBS, was immersed in 30% (w/v) of sucrose in the PBS, and was frozen in O.C.T. COMPOUND at −80° C. overnight. Next, the frozen specimen was thawed, was washed with PBS, and was immersed in a 0.5% solution of periodic acid (HIO;) (86171, MUTO PURE CHEMICALS CO., LTD.) at room temperature for 30 minutes. […] A cleared tissue specimen thus obtained was subjected to 3D imaging with a confocal fluorescence microscope or a light-sheet fluorescence microscope. A wavelength of 488 nm was applied as the excitation wavelength of each of FAM hydrazide, Compound 1, Alexa Fluor 488 hydrazide, BDP FL hydrazide, and fluorescein, and the fluorescence detection wavelength range of each of these materials was from 490 nm to 562 nm. […]

[2] = test system: human colonic polyp; experiment: 3D imaging of human colonic polyp with light-sheet microscope (Test Example G); conditions: with propidium iodide counterstain
Protocol: as §1

[3] = test system: goblet cell mucus of human colorectal mucosal tissue; experiment: Fluorescent staining of frozen sliced specimen of human colonic mucosa (Test Example A)
Protocol: A tissue to be stained was washed with phosphate buffered saline (PBS), was immersed in 30% (w/v) of sucrose in the PBS, and was frozen in O.C.T. COMPOUND (45833, Sakura Finetek) at −80° ° C. overnight. The frozen tissue was cut into a thickness of 10 μm with a cryostat (CM3050 S, Leica Biosystems). The resultant frozen section was washed with PBS three times, and was subjected to pretreatment with a 0.5% solution of periodic acid (HIOA) (86171, MUTO PURE CHEMICALS CO., LTD.) at room temperature for 30 minutes. The section was washed with PBS three times, and was incubated in FAM hydrazide, 5-isomer((50 µM, 24170, BroadPharm, in this description, sometimes referred to as “FAM hydrazide”), Alexa Fluor 488 hydrazide (50 μM, A10436, ThermoFisher Scientific, Inc.), BDP FL hydrazide (50 μM, 11470, Lumiprobe Corporation), or fluorescein (50 µM, FUJIFILM Wako Pure Chemical Corporation) diluted with PBS at room temperature overnight. After that, the section was washed with PBS and an image thereof was obtained with a confocal microscope.
A section of a human colorectal mucosal tissue sampled from the non-tumor region of a surgical specimen of colorectal cancer was subjected to fluorescent staining through use of FAM hydrazide, Alexa Fluor 488 hydrazide, BDP FL hydrazide, or fluorescein serving as a fluorescent skeleton as a stain.

[4] = test system: colonic tissue analyte, crypt structure and neutrophils; experiment: 3D imaging of ulcerative colitis histopathological analyte (Test Example D); set-up: species or system human; conditions: cleared, whole-mount 3D staining
Protocol: as §1

[5] = test system: human colonic mucosal tissue; experiment: Clearing and whole-mount 3D fluorescent staining of human colonic mucosal tissue (Test Example B)
Protocol: CUBIC-L and CUBIC-R+reagents (T3740 and T3741, Tokyo Chemical Industry Co., Ltd.) were used in tissue clearing. Atissue removal procedure is simply described below.
A formaldehyde-fixed tissue specimen was washed with PBS, and was subsequently immersed in a 50% (v/v) CUBIC-L reagent (mixture containing water and the CUBIC-L reagent at 1:1) overnight. Further, the specimen was immersed in the CUBIC-L reagent at 37° C. for 5 days or 6 days while being gently shaken. Next, each of those specimens was washed with PBS, was immersed in 30% (w/v) of sucrose in the PBS, and was frozen in O.C.T. COMPOUND at −80° C. overnight. […] After having been washed with PBS, the specimen was stained by being gently shaken at room temperature for 2 days or 3 days together with FAM hydrazide, 5-isomer (50 μM), Compound 1 (50 μM), Alexa Fluor 488 hydrazide (50 µM), BDP FL hydrazide ([…]), or fluorescein (50 µM) in PBS containing 0.5% (v/v) of Triton X-100 (12967, Nacalai Tesque, Inc.). When nuclear counterstaining was performed, propidium iodide (PI) (10 μg/mb, P21493, Life Technologies Corporation) or RedDot-2 (1:100, 40061-T, Biotium, Inc.) was also added to the staining solution. After the staining step, the specimen was washed with PBS, and was immersed in a 50% (v/v) CUBIC-R+reagent (mixture containing water and the CUBIC-R+reagent at 1:1) overnight. Further, the specimen was immersed in the CUBIC-R+reagent for 1 day or 2 days while being gently shaken. A cleared tissue specimen thus obtained was subjected to 3D imaging with a confocal fluorescence microscope or a light-sheet fluorescence microscope. A wavelength of 488 nm was applied as the excitation wavelength of each of FAM hydrazide, Compound 1, Alexa Fluor 488 hydrazide, BDP FL hydrazide, and fluorescein, and the fluorescence detection wavelength range of each of these materials was from 490 nm to 562 nm.
A 3D image was obtained by using a confocal microscope (Zeiss LSM880 Confocal/Multiphoton, Carl Zeiss AG) or a light-sheet fluorescence microscope (Zeiss Lightsheet 7, Carl Zeiss AG), All pieces of raw image data were reconstructed and analyzed with Imaris software (version 9.2.1, Bitplane Inc.).
A human colonic mucosal tissue after its formalin fixation, which had been excised into a square about 4 mm on a side, was subjected to clearing treatment and to whole-mount 3D tissue staining through use of FAM hydrazide, Alexa Fluor 488 hydrazide, BDP FL hydrazide, or fluorescein as a stain.

[6] = test system: fungal hyphae in a pulmonary aspergillosis tissue; experiment: 3D imaging of fungal hyphae (Test Example H); conditions: with RedDot 2 counterstain, confocal microscope
Protocol: as §1

SMILES: NNC(=O)c1ccc2c(c1)C(=O)OC21c2ccc(O)cc2Oc2cc(O)ccc21 [FAM hydrazide, FAM hydrazide, 5-isomer]
- Stained image of neutrophil in 3D imaging [1]: clear stained image
- Observation of surface layer structure of human colonic polyp [2]: able to be observed
- Fluorescent staining signal in goblet cell mucus, sliced section ([3]; 10 μm frozen section, 0.5% periodic acid pretreatment, 50 μM overnight): clear positive image
- Fluorescent staining signal without oxidation treatment with HIO4, sliced section ([3]; no HIO4 oxidation): not obtained
- Three-dimensional observation of pathological crypt structure of ulcerative colitis [4]: enabled the three-dimensional observation
- 3D imaging signal of cleared tissue ([5]; CUBIC clearing, periodic acid, 50 μM, 2-3 days, excitation 488 nm): clear stereoscopic image
- Staining of goblet cell and basement membrane in crypt of colonic mucosa ([5]; cleared tissue, 3D staining): clearly stained
- Staining of neutrophil in 3D tissue staining ([5]; cleared tissue, confirmed with anti-MPO antibody): clearly stained
- 3D staining signal without oxidation treatment with HIO4 ([5]; no HIO4 oxidation, CUBIC reagent): no positive signal was observed
- Staining property for a sample having a thickness after clearing treatment ([5]; summary of Examples and Test Examples): significantly excellent
- Visualization of structures of fungal hyphae [6]: clearly visualized
